2 compounds from ChEMBL document CHEMBL1149734, “Molluscicidal acridone alkaloids from Angostura paniculata: isolation, structures, and synthesis” (J Nat Prod, 1992) can be followed below.

The structures appear in SMILES notation. In brackets after ≈: the same amount, converted by molar mass. Activity calls are given as the source filed them. No cut-off for these calls is given here.

The test system of experiment [1] is BT-20. As to the kind of experiment: Growth inhibition of human BT20 cells by MTT assay. In kind it is functional, cell-based. In general terms: Tetrazolium dyes change colour on reduction, which living cells bring about.
Experiment [2] has as its system Biomphalaria glabrata. Briefly: Molluscicidal activity against Biomphalaria glabrata. It counts as functional.
In experiment [3] the test system is HeLa. Briefly: Cytotoxicity against human HeLa cells by MTT assay. In kind it is functional, cell-based.

Regarding `COc1cc2[nH]c3c(OC)c(OC)ccc3c(=O)c2c(O)c1OC` [CUSPANINE], the “growth inhibition (GI)” value in experiment [1] is “Active”. Further, the LC50 in experiment [2] was 5 µg/mL (≈ 15.1 µM). The same compound had an IC50 in experiment [3] of 2.5 µg/mL (≈ 7.55 µM).
In the same order, the values of `COc1cc2[nH]c3c(OC)c(OC)ccc3c(=O)c2c(OC)c1OC` [CUSCULINE] are “Active”, 20 µg/mL (≈ 57.9 µM) and 8.5 µg/mL (≈ 24.6 µM).

A word on the LC50: it is the concentration lethal to half of the exposed cells or organisms. Low readings indicate a more lethal substance, high ones a less lethal substance. A word on the IC50: it is the concentration needed to halve the response being measured. Higher therefore signals a need for much substance.
